Experiments:
Format in all cases: cell-based
Adenylate cyclase type 2 [1] = target: T1, Adenylate cyclase type 2 (Homo sapiens, UniProt Q08462); assay: Agonist activity at recombinant human AC2 expressed in HEK293 cells assessed as increase in cAMP level measured after 30 mins by LANCE Ultra cAMP Detection kit method
Adenylate cyclase type 2 [2] = target: T1, Adenylate cyclase type 2; assay: Agonist activity at recombinant human AC2 expressed in HEK293 cells assessed as increase in cAMP level by measuring cAMP level at 50 uM measured after 30 mins by LANCE Ultra cAMP Detection kit method relative to control; conditions: filed as agonist
Adenylate cyclase type 2 [3] = target: T1, Adenylate cyclase type 2; assay: Agonist activity at recombinant human AC2 expressed in HEK293 cells assessed as reduction in IL6 level by measuring IL6 level at 50 uM measured after 24 hrs by ELISA relative to control; set-up: scale not given: the % may be the effect or the level left
Adenylate cyclase type 5 = Adenylate cyclase type 5 (Homo sapiens, UniProt O95622); assay: Agonist activity at recombinant human AC5 expressed in HEK293 cells assessed as increase in cAMP level at 50 uM measured after 30 mins by LANCE Ultra cAMP Detection kit method; conditions: hek293, 0.5 h
Adenylate cyclase type 5, sequence (O95622 whole entry): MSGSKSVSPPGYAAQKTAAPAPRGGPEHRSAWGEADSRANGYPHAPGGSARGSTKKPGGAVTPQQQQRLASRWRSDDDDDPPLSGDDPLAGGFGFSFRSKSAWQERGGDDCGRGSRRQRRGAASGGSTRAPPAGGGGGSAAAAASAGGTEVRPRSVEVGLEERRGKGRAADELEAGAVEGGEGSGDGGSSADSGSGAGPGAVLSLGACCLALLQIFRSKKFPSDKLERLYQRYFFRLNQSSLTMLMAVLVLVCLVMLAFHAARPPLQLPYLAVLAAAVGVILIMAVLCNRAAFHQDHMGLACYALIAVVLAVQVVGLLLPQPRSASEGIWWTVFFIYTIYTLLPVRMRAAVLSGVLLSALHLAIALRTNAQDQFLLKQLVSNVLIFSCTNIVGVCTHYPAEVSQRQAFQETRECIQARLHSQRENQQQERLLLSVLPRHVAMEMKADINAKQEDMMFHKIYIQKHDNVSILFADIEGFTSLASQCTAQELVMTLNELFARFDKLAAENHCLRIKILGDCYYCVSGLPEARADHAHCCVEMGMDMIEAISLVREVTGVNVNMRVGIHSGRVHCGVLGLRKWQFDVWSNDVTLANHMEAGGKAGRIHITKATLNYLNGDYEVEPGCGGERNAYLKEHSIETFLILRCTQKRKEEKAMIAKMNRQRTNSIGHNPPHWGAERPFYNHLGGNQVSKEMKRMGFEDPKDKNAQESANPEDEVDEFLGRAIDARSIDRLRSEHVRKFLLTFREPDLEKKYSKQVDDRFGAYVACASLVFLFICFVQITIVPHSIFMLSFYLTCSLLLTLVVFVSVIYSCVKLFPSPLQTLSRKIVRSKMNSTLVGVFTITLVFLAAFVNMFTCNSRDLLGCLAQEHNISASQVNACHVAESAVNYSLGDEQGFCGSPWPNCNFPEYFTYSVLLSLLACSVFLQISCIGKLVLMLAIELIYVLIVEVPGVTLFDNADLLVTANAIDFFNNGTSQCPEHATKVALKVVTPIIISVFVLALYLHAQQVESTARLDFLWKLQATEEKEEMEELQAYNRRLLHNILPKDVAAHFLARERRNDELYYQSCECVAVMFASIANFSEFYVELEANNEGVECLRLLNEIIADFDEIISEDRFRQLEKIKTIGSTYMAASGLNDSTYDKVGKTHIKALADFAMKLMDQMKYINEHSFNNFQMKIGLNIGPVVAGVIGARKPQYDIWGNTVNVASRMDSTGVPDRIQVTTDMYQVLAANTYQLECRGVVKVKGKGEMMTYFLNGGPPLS

Adenylate cyclase type 8 = Adenylate cyclase type 8 (Homo sapiens, UniProt P40145); assay: Agonist activity at recombinant human AC8 expressed in HEK293 cells assessed as increase in cAMP level at 50 uM measured after 30 mins by LANCE Ultra cAMP Detection kit method; conditions: hek293, 0.5 h
Adenylate cyclase type 8, sequence (P40145 whole entry): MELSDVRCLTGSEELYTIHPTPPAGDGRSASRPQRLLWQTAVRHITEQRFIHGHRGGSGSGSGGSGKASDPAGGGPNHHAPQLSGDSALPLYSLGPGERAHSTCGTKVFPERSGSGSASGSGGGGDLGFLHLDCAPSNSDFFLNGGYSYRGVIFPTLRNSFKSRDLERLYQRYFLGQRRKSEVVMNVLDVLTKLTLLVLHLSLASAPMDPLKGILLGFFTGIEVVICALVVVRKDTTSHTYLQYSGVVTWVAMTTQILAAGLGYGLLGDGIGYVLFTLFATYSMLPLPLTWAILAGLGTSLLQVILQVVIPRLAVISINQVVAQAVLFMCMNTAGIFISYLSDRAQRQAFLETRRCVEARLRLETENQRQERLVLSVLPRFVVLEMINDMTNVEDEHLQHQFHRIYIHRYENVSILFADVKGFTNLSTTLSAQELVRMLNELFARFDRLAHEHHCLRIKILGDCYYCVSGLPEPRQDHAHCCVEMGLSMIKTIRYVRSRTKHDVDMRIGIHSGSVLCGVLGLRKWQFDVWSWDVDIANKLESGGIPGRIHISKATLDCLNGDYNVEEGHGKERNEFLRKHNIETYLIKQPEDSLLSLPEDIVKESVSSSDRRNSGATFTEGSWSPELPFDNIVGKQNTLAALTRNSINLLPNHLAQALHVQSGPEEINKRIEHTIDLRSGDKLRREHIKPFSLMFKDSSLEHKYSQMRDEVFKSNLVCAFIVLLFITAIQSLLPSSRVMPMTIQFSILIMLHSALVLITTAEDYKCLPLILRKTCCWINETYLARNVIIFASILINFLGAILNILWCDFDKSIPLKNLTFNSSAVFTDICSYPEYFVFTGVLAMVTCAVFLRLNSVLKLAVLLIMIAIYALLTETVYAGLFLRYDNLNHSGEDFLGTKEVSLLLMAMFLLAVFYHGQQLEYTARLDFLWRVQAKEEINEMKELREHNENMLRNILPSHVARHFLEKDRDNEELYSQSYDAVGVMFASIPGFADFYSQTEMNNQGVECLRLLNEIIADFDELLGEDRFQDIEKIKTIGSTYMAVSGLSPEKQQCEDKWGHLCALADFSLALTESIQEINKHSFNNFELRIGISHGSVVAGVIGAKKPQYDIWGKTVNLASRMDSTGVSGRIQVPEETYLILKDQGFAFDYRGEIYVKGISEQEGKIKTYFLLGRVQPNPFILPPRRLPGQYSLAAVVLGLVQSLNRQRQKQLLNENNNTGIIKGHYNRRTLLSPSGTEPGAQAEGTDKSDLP

Adenylate cyclase type 1 = Adenylate cyclase type 1 (Homo sapiens, UniProt Q08828); assay: Agonist activity at recombinant human AC1 expressed in HEK293 cells assessed as increase in cAMP level at 50 uM measured after 30 mins by LANCE Ultra cAMP Detection kit method; conditions: hek293, 0.5 h
Adenylate cyclase type 1, sequence (Q08828 whole entry): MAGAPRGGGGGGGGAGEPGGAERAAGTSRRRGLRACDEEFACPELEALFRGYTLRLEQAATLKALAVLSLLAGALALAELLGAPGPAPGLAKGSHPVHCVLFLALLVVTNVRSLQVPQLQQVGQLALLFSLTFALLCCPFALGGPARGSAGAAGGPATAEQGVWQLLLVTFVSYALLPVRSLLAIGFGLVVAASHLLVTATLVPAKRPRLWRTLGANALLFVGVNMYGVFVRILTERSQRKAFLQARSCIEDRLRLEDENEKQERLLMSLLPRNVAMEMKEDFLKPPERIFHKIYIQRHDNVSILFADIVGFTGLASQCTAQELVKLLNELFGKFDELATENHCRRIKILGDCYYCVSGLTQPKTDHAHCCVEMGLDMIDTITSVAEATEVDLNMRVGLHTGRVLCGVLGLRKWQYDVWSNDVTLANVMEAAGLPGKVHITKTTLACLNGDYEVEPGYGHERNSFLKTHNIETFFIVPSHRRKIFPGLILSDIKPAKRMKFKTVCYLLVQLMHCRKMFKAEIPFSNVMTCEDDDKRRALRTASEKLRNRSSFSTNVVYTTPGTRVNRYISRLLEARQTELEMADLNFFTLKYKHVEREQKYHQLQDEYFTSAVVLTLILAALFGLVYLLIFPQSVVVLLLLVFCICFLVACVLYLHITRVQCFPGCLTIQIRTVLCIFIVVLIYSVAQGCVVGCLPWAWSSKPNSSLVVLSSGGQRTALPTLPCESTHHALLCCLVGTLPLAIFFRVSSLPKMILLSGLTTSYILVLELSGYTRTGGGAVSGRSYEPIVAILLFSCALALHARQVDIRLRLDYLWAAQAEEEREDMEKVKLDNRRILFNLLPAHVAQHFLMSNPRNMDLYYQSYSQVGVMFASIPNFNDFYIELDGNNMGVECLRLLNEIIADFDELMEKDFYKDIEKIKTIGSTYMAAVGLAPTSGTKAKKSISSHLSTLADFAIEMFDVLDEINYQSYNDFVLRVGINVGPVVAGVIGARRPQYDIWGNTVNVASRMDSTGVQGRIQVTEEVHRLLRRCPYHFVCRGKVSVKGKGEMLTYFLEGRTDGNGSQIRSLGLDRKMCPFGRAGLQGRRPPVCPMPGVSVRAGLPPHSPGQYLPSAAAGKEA

Adenylate cyclase type 2 [4] = target: T1, Adenylate cyclase type 2; assay: Potency index, ratio of forskolin EC50 to test compound EC50 for agonist activity at recombinant human AC2 expressed in HEK293 cells assessed as increase in cAMP level

T1 sequence (Q08462 whole entry): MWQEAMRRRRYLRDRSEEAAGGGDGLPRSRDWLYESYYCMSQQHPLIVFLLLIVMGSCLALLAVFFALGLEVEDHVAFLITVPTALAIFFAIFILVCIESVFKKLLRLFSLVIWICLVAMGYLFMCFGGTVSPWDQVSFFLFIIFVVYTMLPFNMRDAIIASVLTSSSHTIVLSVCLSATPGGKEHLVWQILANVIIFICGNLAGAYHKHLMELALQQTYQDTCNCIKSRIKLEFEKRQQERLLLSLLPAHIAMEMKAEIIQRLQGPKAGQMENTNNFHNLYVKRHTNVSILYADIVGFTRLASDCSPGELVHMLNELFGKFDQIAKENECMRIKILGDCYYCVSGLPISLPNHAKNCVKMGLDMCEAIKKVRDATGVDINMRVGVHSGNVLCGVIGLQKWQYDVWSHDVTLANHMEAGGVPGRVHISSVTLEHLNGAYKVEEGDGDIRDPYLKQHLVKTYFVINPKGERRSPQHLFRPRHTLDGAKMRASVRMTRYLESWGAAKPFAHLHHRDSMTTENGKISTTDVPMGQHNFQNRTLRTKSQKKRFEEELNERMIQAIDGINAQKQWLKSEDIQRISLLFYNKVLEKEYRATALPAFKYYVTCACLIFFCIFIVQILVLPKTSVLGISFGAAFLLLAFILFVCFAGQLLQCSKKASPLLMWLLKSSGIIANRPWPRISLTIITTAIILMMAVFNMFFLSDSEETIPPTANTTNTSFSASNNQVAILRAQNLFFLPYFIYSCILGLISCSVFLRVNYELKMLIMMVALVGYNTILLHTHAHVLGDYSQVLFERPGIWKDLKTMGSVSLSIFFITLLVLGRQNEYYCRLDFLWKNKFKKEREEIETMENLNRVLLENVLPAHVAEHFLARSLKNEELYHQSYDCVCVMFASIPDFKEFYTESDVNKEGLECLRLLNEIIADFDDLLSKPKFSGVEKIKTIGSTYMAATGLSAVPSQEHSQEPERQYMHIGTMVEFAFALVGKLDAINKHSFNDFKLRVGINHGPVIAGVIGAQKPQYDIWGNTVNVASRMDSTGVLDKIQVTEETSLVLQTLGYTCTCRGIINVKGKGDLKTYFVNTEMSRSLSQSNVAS

SMILES: Cc1ccc([C@H]2OC3(C(=O)c4ccc(Br)cc4C3=O)[C@H]3C(=O)N(c4ccccc4Cl)C(=O)[C@@H]23)cc1 (some centres not stated)
- EC50 (Adenylate cyclase type 2 [1]): 90 nM
- Activity (Adenylate cyclase type 2 [2]): 87.8%
- Activity (Adenylate cyclase type 2 [3]): 37.1%
- Activity (Adenylate cyclase type 5): Not Active
- Activity (Adenylate cyclase type 8): Not Active
- Activity (Adenylate cyclase type 1): Not Active
- Ratio EC50 (Adenylate cyclase type 2 [4]): 160
